These results are taken from US20260356856A1, “KRAS G12S AND G12C INHIBITORS” (MIRATI THERAPEUTICS, INC., priority 2023, published 2026).

Structures are written as SMILES.

One assay has as its target T1, KRas G12C (Homo sapiens, UniProt P01116, G12C).
T1 construct: Biotinylated KRas (corresponding to amino acids 1-169, produced at Accelegan Inc.); biotin (biotinylated); purchased Accelegan Inc
The assay is described as follows: KRas binding assay, TR-FRET displacement of Cy5 labelled tracer. The note with it: 60-minute incubation at room temperature, 1% DMSO, pH 7.5. A digest of the protocol: (§1)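 Tb-streptavidin captured biotinylated KRas (1-169) in HEPES 50 mM, DTT 1 mM, MgCl2 5 mM, Tween-20 0.005% (pH 7.5), alongside tracer and compound at 1% final DMSO. One hour at RT, then read; IC50 from 4-parameter POC fit.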

The target in a further assay is T2, KRas G12S (Homo sapiens, UniProt P01116, G12S).
T2 construct: Biotinylated KRas (corresponding to amino acids 1-169, produced at Accelegan Inc.); biotin (biotinylated); purchased Accelegan Inc
T2 sequence (P01116 1-169 isoform P01116-2 G12S): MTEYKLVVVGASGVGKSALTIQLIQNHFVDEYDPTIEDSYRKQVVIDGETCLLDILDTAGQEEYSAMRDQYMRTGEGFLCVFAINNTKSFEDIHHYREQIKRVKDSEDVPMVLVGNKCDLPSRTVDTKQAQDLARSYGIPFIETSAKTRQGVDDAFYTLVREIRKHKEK
Described as above. Particulars: 60-minute incubation at room temperature, 1% DMSO, pH 7.5. In outline: as §1

The target in another assay is T3, KRas WT (Homo sapiens, UniProt P01116).
T3 construct: Biotinylated KRas (corresponding to amino acids 1-169, produced at Accelegan Inc.); biotin (biotinylated); purchased Accelegan Inc
T3 sequence (P01116 1-169 isoform P01116-2): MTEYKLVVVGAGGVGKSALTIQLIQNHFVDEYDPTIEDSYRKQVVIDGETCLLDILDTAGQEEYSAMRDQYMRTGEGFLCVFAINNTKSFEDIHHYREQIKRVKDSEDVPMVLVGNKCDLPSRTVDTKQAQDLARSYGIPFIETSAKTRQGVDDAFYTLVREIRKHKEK
The description is as above. Particulars: 60-minute incubation at room temperature, 1% DMSO, pH 7.5. In outline:
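Displacement measured on KRas residues 1-169 (biotinylated, terbium-streptavidin labelled); 1 h, RT; 1% DMSO final; HEPES pH 7.5 / MgCl2 / Tween-20 / DTT. IC50: 4-parameter fit.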

The target of assay [1] is T4, KRas-mediated phosphorylation of ERK in A549 cells (Homo sapiens, UniProt P01116, G12S).
T4 construct: pERK HTRF read-out
T4 sequence (P01116 1-188 isoform P01116-2 G12S): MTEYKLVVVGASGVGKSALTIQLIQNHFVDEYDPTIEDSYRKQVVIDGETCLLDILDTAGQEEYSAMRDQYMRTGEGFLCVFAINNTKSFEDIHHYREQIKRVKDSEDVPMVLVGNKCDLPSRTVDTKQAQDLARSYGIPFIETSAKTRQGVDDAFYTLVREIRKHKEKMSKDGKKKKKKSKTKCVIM
The assay is described as follows: Inhibition of KRas-mediated phosphorylation of ERK (HTRF), A549 cells. The note with it: HTRF pERK, 3 h incubation. The format is cell-based. In general terms: In TR-FRET formats the signal depends on donor and acceptor labels being close together.

Assay [2] has as its target T5, KRas-mediated phosphorylation of ERK in H358 cells (Homo sapiens, UniProt P01116, G12C).
T5 construct: pERK HTRF read-out
The assay is described as follows: Inhibition of KRas-mediated phosphorylation of ERK (HTRF), H358 cells. The format is cell-based. The note with it: HTRF pERK, 3 h incubation.

The target of assay [3] is T6, KRas-mediated phosphorylation of ERK in MKN1 cells (Homo sapiens, UniProt P01116).
T6 construct: pERK HTRF read-out
T6 sequence (P01116 1-188 isoform P01116-2): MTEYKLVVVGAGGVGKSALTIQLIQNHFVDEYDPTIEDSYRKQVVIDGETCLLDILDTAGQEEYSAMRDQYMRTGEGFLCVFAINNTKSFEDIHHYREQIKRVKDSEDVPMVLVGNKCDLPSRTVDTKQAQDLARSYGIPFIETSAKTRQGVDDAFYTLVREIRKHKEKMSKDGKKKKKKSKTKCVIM
The assay can be described thus: Inhibition of KRas-mediated phosphorylation of ERK (HTRF), MKN1 cells. The format is cell-based. Particulars: MKN1 cells (KRas WT); HTRF pERK; 3 h incubation. The method, then: Inhibition of KRas Phosphorylation of ERK (HTRF) by Exemplary Compounds of Formula (Ia) or (Ib)
Cisbio HTRF Advanced pERK Assay Catalog #64AERPEH • Cells: MKN1, PSN1 • Procedure: • 1. Day 1: Seed 6,000 cells/well −25 μl/well in 384-well white solid bottom plate; RPM1_10% FBS. Incubate overnight at 37 °C/5% CO2. • 2.

T1 sequence (P01116 1-169 isoform P01116-2 G12C): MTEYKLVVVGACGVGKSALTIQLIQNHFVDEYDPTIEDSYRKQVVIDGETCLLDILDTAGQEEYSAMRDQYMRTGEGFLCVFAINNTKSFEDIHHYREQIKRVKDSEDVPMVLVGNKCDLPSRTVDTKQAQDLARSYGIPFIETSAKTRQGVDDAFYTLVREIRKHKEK
T5 sequence (P01116 1-188 isoform P01116-2 G12C): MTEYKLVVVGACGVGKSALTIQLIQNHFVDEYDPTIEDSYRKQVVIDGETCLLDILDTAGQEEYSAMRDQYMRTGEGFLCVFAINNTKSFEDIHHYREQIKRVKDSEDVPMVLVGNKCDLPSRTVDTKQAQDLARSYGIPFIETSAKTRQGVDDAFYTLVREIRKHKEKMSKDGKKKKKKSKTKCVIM

By IC50 is commonly meant the point on the concentration scale where inhibition reaches its midpoint. Read a high IC50 as weaker potency in that assay. For the compound `CCc1c(F)ccc2cc(O)cc(-c3ncc4c(N5CCN(C(=O)n6cccn6)CC5)nc(OC[C@@]56CCCN5C[C@H](F)C6)nc4c3F)c12` [Example 60, (4-(7-(8-ethyl-7-fluoro-3-hydroxynaphthalen-1-yl)-8-fluoro-2-(((2R,7aS)-2-fluorotetrahydro-1H-pyrrolizin-7a(5H)-yl)methoxy)pyrido[4,3-d]pyrimidin-4-yl)piperazin-1-yl)(1H-pyrazol-1-yl) methanone], the IC50 on KRas G12C is 76 nM; at KRas G12S it was 115 nM; at KRas WT it was 24 nM; in assay [1] it was 2350 nM; in assay [2] it was 450 nM.

`CCc1c(F)ccc2cc(O)cc(-c3ncc4c(N5CCC(C(=O)Nc6ccccn6)CC5)nc(OC[C@@]56CCCN5C[C@H](F)C6)nc4c3F)c12` [Example 153, 1-(7-(8-ethyl-7-fluoro-3-hydroxynaphthalen-1-yl)-8-fluoro-2-(((2R,7aS)-2-fluorotetrahydro-1H-pyrrolizin-7a(5H)-yl)methoxy)pyrido[4,3-d]pyrimidin-4-yl)-N-(pyridin-2-yl)piperidine-4-carboxamide]: the IC50 on KRas G12C was 439 nM; on KRas G12S it was 642 nM; at KRas WT, 138 nM; in assay [1] it was 4130 nM; in assay [2], 1760 nM.

Consider `CCc1c(F)ccc2cc(O)cc(N3CCc4c(nc(OC[C@@]56CCCN5C[C@H](F)C6)nc4N4CCCC(C(=O)n5cccn5)CC4)C3)c12` (stereo partly drawn) [Example 143, (1-(7-(8-ethyl-7-fluoro-3-hydroxynaphthalen-1-yl)-2-(((2R,7aS)-2-fluorotetrahydro-1H-pyrrolizin-7a(5H)-yl)methoxy)-5,6,7,8-tetrahydropyrido[3,4-d]pyrimidin-4-yl)azepan-4-yl)(1H-pyrazol-1-yl)methanone], for which the IC50 was found to be 56 nM at KRas G12C; 8 nM on KRas G12S; 166 nM at KRas WT; 38 nM in assay [1]; 931 nM in assay [2].

On to `CCc1c(F)ccc2cc(O)cc(N3CCc4c(nc(OC[C@@]56CCCN5C[C@H](F)C6)nc4N4CCCC(C(=O)n5ccc(C)n5)C4)C3)c12` (stereo partly drawn) [Example 144, (1-(7-(8-ethyl-7-fluoro-3-hydroxynaphthalen-1-yl)-2-(((2R,7aS)-2-fluorotetrahydro-1H-pyrrolizin-7a(5H)-yl)methoxy)-5,6,7,8-tetrahydropyrido[3,4-d]pyrimidin-4-yl)piperidin-3-yl)(3-methyl-1H-pyrazol-1-yl)methanone], for which the concentration for half-maximal inhibition (IC50) was 50 nM at KRas G12C; 32 nM on KRas G12S; 68 nM at KRas WT; 5900 nM in assay [1]; 178 nM in assay [2].

Take `CCc1c(F)ccc2cc(O)cc(-c3ncc4c(N5CCC(C=O)CC5)nc(OC[C@@]56CCCN5C[C@H](F)C6)nc4c3F)c12` [Example 15, 1-(7-(8-ethyl-7-fluoro-3-hydroxynaphthalen-1-yl)-8-fluoro-2-(((2R,7aS)-2-fluorotetrahydro-1H-pyrrolizin-7a(5H)-yl)methoxy)pyrido[4,3-d]pyrimidin-4-yl)piperidine-4-carbaldehyde]: the IC50 at KRas G12C is under 2 nM; on KRas G12S, 9 nM; at KRas WT it was 11 nM; in assay [1], 149 nM; in assay [2], 22 nM.

As for `C=CC1(C(=O)n2ccc(C)n2)CCN(c2nc(OC[C@@]34CCCN3C[C@H](F)C4)nc3c(F)c(-c4cc(O)cc5ccc(F)c(CC)c45)ncc23)C1` (stereo partly drawn) [Example 107, (1-(7-(8-ethyl-7-fluoro-3-hydroxynaphthalen-1-yl)-8-fluoro-2-(((2R,7aS)-2-fluorotetrahydro-1H-pyrrolizin-7a(5H)-yl)methoxy)pyrido[4,3-d]pyrimidin-4-yl)-3-vinylpyrrolidin-3-yl)(3-methyl-1H-pyrazol-1-yl)methanone], the concentration for half-maximal inhibition (IC50) on KRas G12C was 37 nM; at KRas G12S it was 513 nM; at KRas WT it was 1060 nM; in assay [3] it was over 10000 nM; in assay [1], 2070 nM.

Consider `CCc1c(F)ccc2cc(O)cc(-c3ncc4c(N(C)CCCC(=O)N(C)C(C)=O)nc(OC[C@@]56CCCN5C[C@@]5(CC5(F)F)C6)nc4c3F)c12` [Example 293, N-acetyl-4-((2-(((1S,7a'S)-2,2-difluorodihydro-1′H,3′H-spiro[cyclopropane-1,2′-pyrrolizin]-7a′ (5′H)-yl)methoxy)-7-(8-ethyl-7-fluoro-3-hydroxynaphthalen-1-yl)-8-fluoropyrido[4,3-d]pyrimidin-4-yl)(methyl)amino)-N-methylbutanamide], for which the concentration for half-maximal inhibition (IC50) on KRas G12C stood at 72 nM; on KRas G12S it was 21 nM; on KRas WT, 219 nM; in assay [3] it was 699 nM; in assay [1], 67 nM.

Consider `CCc1c(F)ccc2cc(O)cc(-c3ncc4c(N(C)CCCS(=O)(=O)n5ccnc5)nc(OC[C@@]56CCCN5C[C@H](F)C6)nc4c3F)c12` [Example 163, 4-(4-((3-((1H-imidazol-1-yl)sulfonyl)propyl)(methyl)amino)-8-fluoro-2-(((2R,7aS)-2-fluorotetrahydro-1H-pyrrolizin-7a(5H)-yl)methoxy)pyrido[4,3-d]pyrimidin-7-yl)-5-ethyl-6-fluoronaphthalen-2-ol], for which the IC50 was determined as 131 nM at KRas G12C; 129 nM on KRas G12S; 98 nM on KRas WT; 1250 nM in assay [3]; 7590 nM in assay [1].

As for `Cc1ccn(C(=O)C2CCCCN(c3nc(OC[C@@]45CCCN4C[C@H](F)C5)nc4c(F)c(-c5ccc(F)c6sc(N)c(C#N)c56)c(Cl)cc34)C2)n1` (stereo partly drawn) [Example 136, 2-amino-4-(6-chloro-8-fluoro-2-(((2R,7aS)-2-fluorotetrahydro-1H-pyrrolizin-7a(5H)-yl)methoxy)-4-(3-(3-methyl-1H-pyrazole-1-carbonyl)azepan-1-yl)quinazolin-7-yl)-7-fluorobenzo[b]thiophene-3-carbonitrile], the 50% inhibitory concentration (IC50) on KRas G12C is 16 nM; at KRas G12S, 17 nM; at KRas WT, 23 nM; in assay [3], 13 nM; in assay [1] it was 249 nM.

As for `CCc1c(F)ccc2cc(O)cc(-c3ncc4c(N5C[C@H](C(=O)n6ccc(C)n6)[C@@H](C)C5)nc(OC[C@@]56CCCN5C[C@H](F)C6)nc4c3F)c12` [Example 96, ((3R,4R)-1-(7-(8-ethyl-7-fluoro-3-hydroxynaphthalen-1-yl)-8-fluoro-2-(((2R,7aS)-2-fluorotetrahydro-1H-pyrrolizin-7a(5H)-yl)methoxy)pyrido[4,3-d]pyrimidin-4-yl)-4-methylpyrrolidin-3-yl)(3-methyl-1H-pyrazol-1-yl)methanone], the IC50 at KRas G12C was 375 nM; on KRas G12S, 339 nM; at KRas WT it was 162 nM; in assay [3] it was over 10000 nM; in assay [1], over 10000 nM.

On to `CCc1c(F)ccc2cc(O)cc(-c3ncc4c(NCC56CC(C(=O)n7ccc(C)n7)(C5)C6)nc(OC[C@@]56CCCN5C[C@H](F)C6)nc4c3F)c12` [Example 92, (3-(((7-(8-ethyl-7-fluoro-3-hydroxynaphthalen-1-yl)-8-fluoro-2-(((2R,7aS)-2-fluorotetrahydro-1H-pyrrolizin-7a(5H)-yl)methoxy)pyrido[4,3-d]pyrimidin-4-yl)amino)methyl)bicyclo[1.1.1]pentan-1-yl)(3-methyl-1H-pyrazol-1-yl)methanone], for which the half-inhibitory concentration (IC50) at KRas G12C was 3 nM; on KRas G12S it was 17 nM; on KRas WT, 59 nM; in assay [3], over 10000 nM; in assay [1], 1380 nM.

For `CCc1c(F)ccc2cc(O)cc(-c3ncc4c(NC[C@@H]5C[C@@H]5C(=O)n5ccc(C)n5)nc(OC[C@@]56CCCN5C[C@H](F)C6)nc4c3F)c12` [Example 103, ((1S,2R)-2-(((7-(8-ethyl-7-fluoro-3-hydroxynaphthalen-1-yl)-8-fluoro-2-(((2R,7aS)-2-fluorotetrahydro-1H-pyrrolizin-7a(5H)-yl)methoxy)pyrido[4,3-d]pyrimidin-4-yl)amino)methyl)cyclopropyl)(3-methyl-1H-pyrazol-1-yl)methanone], the IC50 on KRas G12C turned out to be 37 nM; at KRas G12S, 35 nM; on KRas WT, 34 nM; in assay [3], 351 nM; in assay [1], 167 nM.

Consider `CCc1c(F)ccc2cc(O)cc(-c3ncc4c(NC[C@@H]5C[C@H]5C(=O)n5ccc(C)n5)nc(OC[C@@]56CCCN5C[C@H](F)C6)nc4c3F)c12` [Example 112, ((1R,2R)-2-(((7-(8-ethyl-7-fluoro-3-hydroxynaphthalen-1-yl)-8-fluoro-2-(((2R,7aS)-2-fluorotetrahydro-1H-pyrrolizin-7a(5H)-yl)methoxy)pyrido[4,3-d]pyrimidin-4-yl)amino)methyl)cyclopropyl)(3-methyl-1H-pyrazol-1-yl)methanone], for which the concentration for half-maximal inhibition (IC50) on KRas G12C worked out at 11 nM; at KRas G12S, 9 nM; at KRas WT, 19 nM; in assay [3], 80 nM; in assay [1], 15 nM.
